One compound from ChEMBL document CHEMBL1201862, “PubChem BioAssay data set” (2004) can be followed below.

Each structure is given as a SMILES string. Activity calls are given as the source filed them.

Common to all, as to type: functional
The target in assay [1] is Tyrosine-protein kinase Srms (Homo sapiens, UniProt Q9H3Y6).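 Also: SRMS measured as one member of a kinome-wide kinase profiling panel.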
The target in assay [2] is Tyrosine-protein kinase Fer (Homo sapiens, UniProt P16591).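 Also: FER tested as one member of a kinome panel.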
The target in assay [3] is Vascular endothelial growth factor receptor 1 (Homo sapiens, UniProt P17948).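 Also: measured within a kinome-wide profiling panel, FLT1 as the panel member.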
For assay [4], the target named is Cyclin-dependent kinase 7 (Homo sapiens, UniProt P50613).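 Also: value comes from a kinome-wide kinase profiling panel in which CDK7 is one member.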
Assay [5] deals with Vascular endothelial growth factor receptor 3 (Homo sapiens, UniProt P35916).
The target of assay [6] is Dual specificity tyrosine-phosphorylation-regulated kinase 1A (Homo sapiens, UniProt Q13627).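 Also: measured against DYRK1A as one member of a broad kinome profiling panel.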
The target in assay [7] is Maternal embryonic leucine zipper kinase (Homo sapiens, UniProt Q14680).
For assay [8], the target named is 5'-AMP-activated protein kinase catalytic subunit alpha-1 (Homo sapiens, UniProt Q13131).
For assay [9], the target named is ALK tyrosine kinase receptor (Homo sapiens, UniProt Q9UM73).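 Also: ALK tested as one member of a kinase panel screen.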
Assay [10] deals with cAMP-dependent protein kinase catalytic subunit PRKX (Homo sapiens, UniProt P51817).
In assay [11] the target is Tyrosine-protein kinase Fyn (Homo sapiens, UniProt P06241).
Assay [12] has as its target 3-phosphoinositide-dependent protein kinase 1 (Homo sapiens, UniProt O15530).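 Also: value comes from the Navigating the Kinome panel, PDPK1 member.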
For assay [13], the target named is G protein-coupled receptor kinase 5 (Homo sapiens, UniProt P34947). The experiment in a line: Navigating the Kinome. Panel member name: GPRK5.
The target of assay [14] is Homeodomain-interacting protein kinase 4 (Homo sapiens, UniProt Q8NE63).
Assay [15] concerns the target Calcium/calmodulin-dependent protein kinase type II subunit beta (Homo sapiens, UniProt Q13554).
Assay [16] deals with Cyclin-dependent kinase 1 (Homo sapiens, UniProt P06493).
Assay [17] deals with Protein kinase C iota type (Homo sapiens, UniProt P41743).
The target in assay [18] is Death-associated protein kinase 3 (Homo sapiens, UniProt O43293).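 Also: measured as one member of a kinome-wide profiling panel.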
The target in assay [19] is Fibroblast growth factor receptor 1 (Homo sapiens, UniProt P11362).
Assay [20] has as its target Serine/threonine-protein kinase DCLK1 (Homo sapiens, UniProt O15075).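 Also: affinity for DCLK1 (listed as DCAMKL1) measured as one member of a kinome-wide kinase profiling panel.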
Assay [21] addresses Mitogen-activated protein kinase kinase kinase kinase 2 (Homo sapiens, UniProt Q12851).
Assay [22] concerns the target Homeodomain-interacting protein kinase 2 (Homo sapiens, UniProt Q9H2X6).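 Also: measured within a kinome-wide kinase profiling panel, HIPK2 being one panel member.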
For assay [23], the target named is Receptor-type tyrosine-protein kinase FLT3 (Homo sapiens, UniProt P36888).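 Also: FLT3 was tested as one member of a kinome-wide kinase panel.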
For assay [24], the target named is Lymphokine-activated killer T-cell-originated protein kinase (Homo sapiens, UniProt Q96KB5).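 Also: value comes from a kinase panel screen in which TOPK was one of the panel members.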
Chain of Lymphokine-activated killer T-cell-originated protein kinase (Q96KB5 whole entry): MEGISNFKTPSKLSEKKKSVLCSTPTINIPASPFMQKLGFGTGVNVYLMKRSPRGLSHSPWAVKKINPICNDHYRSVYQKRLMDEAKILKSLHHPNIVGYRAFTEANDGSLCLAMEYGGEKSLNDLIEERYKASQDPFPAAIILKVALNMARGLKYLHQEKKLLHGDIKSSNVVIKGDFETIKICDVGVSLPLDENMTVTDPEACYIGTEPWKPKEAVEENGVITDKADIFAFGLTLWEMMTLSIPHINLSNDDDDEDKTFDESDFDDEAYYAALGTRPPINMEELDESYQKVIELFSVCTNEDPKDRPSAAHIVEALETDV

Chain of Receptor-type tyrosine-protein kinase FLT3 (P36888 whole entry): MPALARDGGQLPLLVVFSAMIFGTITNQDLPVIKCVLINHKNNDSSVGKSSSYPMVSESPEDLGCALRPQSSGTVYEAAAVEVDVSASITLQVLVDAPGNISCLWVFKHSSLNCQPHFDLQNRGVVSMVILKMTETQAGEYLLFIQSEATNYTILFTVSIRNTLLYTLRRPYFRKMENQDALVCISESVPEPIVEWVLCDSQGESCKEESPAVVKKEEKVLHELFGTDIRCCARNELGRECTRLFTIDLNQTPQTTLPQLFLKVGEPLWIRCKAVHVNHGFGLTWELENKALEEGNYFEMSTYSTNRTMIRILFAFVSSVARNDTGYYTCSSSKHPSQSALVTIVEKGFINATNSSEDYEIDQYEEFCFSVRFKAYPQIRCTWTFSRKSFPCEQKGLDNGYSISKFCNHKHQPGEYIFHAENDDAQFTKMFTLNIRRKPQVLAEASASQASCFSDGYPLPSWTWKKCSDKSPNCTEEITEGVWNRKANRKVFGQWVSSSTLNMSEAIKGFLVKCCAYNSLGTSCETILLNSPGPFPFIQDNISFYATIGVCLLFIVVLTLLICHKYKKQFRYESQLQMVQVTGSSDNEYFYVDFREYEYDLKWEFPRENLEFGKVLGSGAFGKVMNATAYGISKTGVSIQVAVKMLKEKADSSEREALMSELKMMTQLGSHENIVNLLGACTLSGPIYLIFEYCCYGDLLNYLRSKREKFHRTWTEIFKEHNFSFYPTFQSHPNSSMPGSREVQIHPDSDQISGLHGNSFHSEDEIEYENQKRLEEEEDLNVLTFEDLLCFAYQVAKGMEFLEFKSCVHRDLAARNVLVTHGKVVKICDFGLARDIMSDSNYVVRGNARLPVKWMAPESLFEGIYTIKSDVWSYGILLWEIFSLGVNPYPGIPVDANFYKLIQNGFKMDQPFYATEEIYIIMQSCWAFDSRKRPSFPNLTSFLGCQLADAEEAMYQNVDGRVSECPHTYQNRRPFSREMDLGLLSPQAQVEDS
Chain of Fibroblast growth factor receptor 1 (P11362 whole entry): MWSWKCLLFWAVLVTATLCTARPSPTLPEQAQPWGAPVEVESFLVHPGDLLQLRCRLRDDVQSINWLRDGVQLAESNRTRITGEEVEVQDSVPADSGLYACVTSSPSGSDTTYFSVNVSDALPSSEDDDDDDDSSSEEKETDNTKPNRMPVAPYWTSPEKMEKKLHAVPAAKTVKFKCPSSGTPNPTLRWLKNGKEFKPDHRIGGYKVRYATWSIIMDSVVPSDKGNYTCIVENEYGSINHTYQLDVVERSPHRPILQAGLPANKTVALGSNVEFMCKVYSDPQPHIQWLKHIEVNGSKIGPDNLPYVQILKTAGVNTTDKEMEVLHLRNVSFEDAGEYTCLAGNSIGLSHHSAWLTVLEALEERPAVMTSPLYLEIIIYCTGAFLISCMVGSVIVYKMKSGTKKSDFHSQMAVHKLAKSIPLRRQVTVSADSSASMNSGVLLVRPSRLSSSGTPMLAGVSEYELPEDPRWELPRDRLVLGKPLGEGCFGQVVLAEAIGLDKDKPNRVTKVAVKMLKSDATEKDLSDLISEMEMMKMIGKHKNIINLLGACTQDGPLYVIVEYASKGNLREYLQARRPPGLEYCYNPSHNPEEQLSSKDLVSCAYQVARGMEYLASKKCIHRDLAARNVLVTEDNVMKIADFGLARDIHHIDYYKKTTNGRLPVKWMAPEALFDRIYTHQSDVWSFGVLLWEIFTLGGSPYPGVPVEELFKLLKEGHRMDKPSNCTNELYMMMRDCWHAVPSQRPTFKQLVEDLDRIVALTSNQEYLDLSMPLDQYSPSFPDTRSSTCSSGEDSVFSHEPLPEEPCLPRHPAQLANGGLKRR
Chain of G protein-coupled receptor kinase 5 (P34947 whole entry): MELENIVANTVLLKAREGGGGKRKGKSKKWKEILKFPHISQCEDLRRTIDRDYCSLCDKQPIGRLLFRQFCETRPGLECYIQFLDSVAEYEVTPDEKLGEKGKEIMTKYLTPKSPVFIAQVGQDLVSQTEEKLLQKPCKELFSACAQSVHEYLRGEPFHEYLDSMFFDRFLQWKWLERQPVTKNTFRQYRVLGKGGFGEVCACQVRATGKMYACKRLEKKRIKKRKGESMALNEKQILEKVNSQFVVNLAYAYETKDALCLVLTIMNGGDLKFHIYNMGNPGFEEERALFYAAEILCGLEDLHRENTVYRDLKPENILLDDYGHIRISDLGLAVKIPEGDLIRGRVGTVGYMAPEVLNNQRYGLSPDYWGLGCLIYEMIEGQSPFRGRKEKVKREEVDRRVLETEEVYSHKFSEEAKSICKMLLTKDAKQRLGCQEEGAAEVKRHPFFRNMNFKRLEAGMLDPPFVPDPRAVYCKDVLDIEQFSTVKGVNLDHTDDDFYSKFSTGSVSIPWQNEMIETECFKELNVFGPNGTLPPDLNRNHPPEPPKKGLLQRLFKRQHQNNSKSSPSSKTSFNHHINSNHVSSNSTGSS
Chain of Cyclin-dependent kinase 7 (P50613 whole entry): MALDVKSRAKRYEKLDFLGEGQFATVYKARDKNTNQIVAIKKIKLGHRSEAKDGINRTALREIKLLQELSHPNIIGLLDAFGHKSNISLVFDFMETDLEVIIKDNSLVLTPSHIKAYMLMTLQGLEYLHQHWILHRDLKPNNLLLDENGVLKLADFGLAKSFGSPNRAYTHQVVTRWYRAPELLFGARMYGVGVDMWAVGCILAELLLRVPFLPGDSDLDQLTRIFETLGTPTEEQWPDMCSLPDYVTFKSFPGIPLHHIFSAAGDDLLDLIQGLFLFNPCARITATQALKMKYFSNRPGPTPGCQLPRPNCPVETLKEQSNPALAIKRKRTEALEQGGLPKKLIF
Chain of ALK tyrosine kinase receptor (Q9UM73 whole entry): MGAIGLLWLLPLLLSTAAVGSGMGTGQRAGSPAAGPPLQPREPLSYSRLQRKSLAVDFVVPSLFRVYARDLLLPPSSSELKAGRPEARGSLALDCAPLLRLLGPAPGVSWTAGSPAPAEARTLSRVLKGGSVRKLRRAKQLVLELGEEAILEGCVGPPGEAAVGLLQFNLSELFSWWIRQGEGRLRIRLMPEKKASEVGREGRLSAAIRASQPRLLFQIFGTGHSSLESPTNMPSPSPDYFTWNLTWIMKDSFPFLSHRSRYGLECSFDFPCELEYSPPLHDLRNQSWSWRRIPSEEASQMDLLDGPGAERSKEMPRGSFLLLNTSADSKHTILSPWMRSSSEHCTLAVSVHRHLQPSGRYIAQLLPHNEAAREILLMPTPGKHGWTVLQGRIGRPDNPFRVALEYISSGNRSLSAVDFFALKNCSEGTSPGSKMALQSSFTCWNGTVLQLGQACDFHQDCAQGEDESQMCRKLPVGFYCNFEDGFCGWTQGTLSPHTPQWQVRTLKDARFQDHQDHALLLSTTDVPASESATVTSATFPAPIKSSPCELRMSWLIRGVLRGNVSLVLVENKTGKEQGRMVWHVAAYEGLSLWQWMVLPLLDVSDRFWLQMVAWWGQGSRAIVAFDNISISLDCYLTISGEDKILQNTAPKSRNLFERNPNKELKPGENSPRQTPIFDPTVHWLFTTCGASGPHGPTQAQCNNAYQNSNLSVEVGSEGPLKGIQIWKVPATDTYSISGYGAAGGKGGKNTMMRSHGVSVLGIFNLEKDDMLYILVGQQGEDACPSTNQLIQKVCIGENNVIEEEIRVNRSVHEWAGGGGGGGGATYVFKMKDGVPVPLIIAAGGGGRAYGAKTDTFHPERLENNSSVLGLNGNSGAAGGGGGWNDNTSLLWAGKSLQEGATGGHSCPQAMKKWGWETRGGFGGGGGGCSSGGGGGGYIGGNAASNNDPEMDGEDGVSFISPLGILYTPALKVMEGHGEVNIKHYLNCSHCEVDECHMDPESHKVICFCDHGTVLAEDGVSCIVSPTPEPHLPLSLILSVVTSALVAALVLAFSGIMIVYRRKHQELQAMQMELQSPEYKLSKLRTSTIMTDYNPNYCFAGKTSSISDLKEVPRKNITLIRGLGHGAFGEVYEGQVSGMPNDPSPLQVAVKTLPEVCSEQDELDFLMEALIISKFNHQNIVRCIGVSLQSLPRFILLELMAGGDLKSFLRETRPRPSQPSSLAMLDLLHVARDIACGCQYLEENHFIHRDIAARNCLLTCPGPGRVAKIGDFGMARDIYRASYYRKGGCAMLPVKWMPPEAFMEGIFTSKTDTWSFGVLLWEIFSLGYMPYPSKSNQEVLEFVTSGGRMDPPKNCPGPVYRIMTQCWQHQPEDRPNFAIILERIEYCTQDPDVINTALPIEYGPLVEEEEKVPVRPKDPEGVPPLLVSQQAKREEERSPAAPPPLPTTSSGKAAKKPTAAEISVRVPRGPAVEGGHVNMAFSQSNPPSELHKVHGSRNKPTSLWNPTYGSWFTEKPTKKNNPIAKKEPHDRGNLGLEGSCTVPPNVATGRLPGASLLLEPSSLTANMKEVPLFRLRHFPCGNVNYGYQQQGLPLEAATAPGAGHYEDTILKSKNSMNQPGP
Chain of cAMP-dependent protein kinase catalytic subunit PRKX (P51817 whole entry): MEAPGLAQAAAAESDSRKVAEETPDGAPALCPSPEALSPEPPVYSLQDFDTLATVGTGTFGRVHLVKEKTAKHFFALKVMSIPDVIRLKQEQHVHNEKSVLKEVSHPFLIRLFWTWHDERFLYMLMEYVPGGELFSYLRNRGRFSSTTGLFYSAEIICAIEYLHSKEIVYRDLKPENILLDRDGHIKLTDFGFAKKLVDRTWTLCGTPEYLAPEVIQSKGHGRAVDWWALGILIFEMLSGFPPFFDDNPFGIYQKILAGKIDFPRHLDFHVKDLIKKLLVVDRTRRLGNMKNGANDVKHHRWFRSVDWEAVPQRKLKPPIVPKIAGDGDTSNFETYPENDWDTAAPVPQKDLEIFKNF

The term Ki denotes the equilibrium dissociation constant of an inhibitor or competing ligand from its target. Take `Clc1cc(NC2CCCCC2)nc(-c2c[nH]c3ncccc23)n1`: the Ki in assay [1] is > 1.58 µM (inactive); in assay [2], 0.398 µM (active); in [3] it was > 0.398 µM (inactive); in assay [4], > 6.31 µM (inactive); in assay [5], 1 µM (active); in assay [6], 0.631 µM (active). The Ki was 0.316 µM (active) in [7]; > 2 µM (inactive) in [8]; > 3.98 µM (inactive) in assay [9]; 0.501 µM (active) in assay [10]; > 0.794 µM (inactive) in assay [11]; 0.0794 µM (active) in [12]. In addition, the Ki in assay [13] is > 3.98 µM (inactive); in [14], 1.26 µM (active); in assay [15] it was 3.16 µM (active); in assay [16] it was 3.16 µM (active); in assay [17], 1 µM (active); in [18] it was 2.51 µM (active). The Ki in assay [19] is > 3.98 µM (inactive); in assay [20], > 10 µM (inactive); in assay [21] it was 0.398 µM (active); in assay [22], 0.631 µM (active); in assay [23] it was > 2 µM (inactive); in assay [24], 6.31 µM (active).
